Laboratory results taken from ChEMBL document CHEMBL5614416, “Discovery of novel thiophene[3,2-d]pyrimidine-based tubulin inhibitors with enhanced antitumor efficacy for combined use with anti-pd-l1 immunotherapy in melanoma” (Eur J Med Chem, 2024).
Activity calls are given as the source filed them. The rule behind the calls is not given here.

Assays:
[1] = Toxicity in C57 mouse xenografted with mouse B16-F10 cells assessed as neutrophil count at 3.5 mg/kg, ip qd for 12 days in presence of NP-19 by biochemical analysis (reference value: 2.130 to 5.46 10^9/L); type: organism-based; conditions: in vivo, 288 h, time 12 day
B16-F10 [2] = assay: Induction of apoptosis in mouse B16-F10 cells assessed as viable cells at 0.5 nM incubated for 12 hrs by Annexin V-FITC/PI staining based flow cytometry (reference value: 93.6 %); type: functional; conditions: read-out: Activity
NCI-H23 = assay: Antiproliferative activity against human NCI-H23 cells incubated for 48 hrs by MTT assay; type: functional, cell-based; conditions: NCI-H23, 48 h
MCF7 [3] = assay: Inhibition of cell migration in human MCF7 cells assessed as migration rate at 2 nM incubated for 24 hrs by wound healing assay (reference value: 18.1 %); type: functional; set-up: scale not given: the % may be the effect or the level left
[4] = Toxicity in C57 mouse xenografted with mouse B16-F10 cells assessed as eosinophil level at 7 mg/kg, ip qd for 12 days by biochemical analysis (reference value: 0.700 to 1.000 %); type: organism-based; conditions: in vivo, 288 h, time 12 day
B16-F10 [5] = assay: Induction of cell cycle arrest in mouse B16-F10 cells assessed as accumulation of cells at S phase at 0.5 nM incubated for 12 hrs by flow cytometry (reference value: 30.5 %); type: functional
[6] = Toxicity in C57 mouse xenografted with mouse B16-F10 cells assessed as body weight change at 7 mg/kg, ip qd for 12 days; type: organism-based; conditions: in vivo, 288 h, time 12 day
B16-F10 [7] = assay: Induction of cell cycle arrest in mouse B16-F10 cells assessed as accumulation of cells at S phase at 2 nM incubated for 12 hrs by flow cytometry (reference value: 30.5 %); type: functional
MCF7 [8] = assay: Inhibition of cell migration in human MCF7 cells assessed as migration rate at 1 nM incubated for 24 hrs by wound healing assay (reference value: 18.1 %); type: functional; set-up: scale not given: the % may be the effect or the level left
MCF7 [9] = assay: Inhibition of cell migration in human MCF7 cells assessed as migration rate at 4 nM incubated for 24 hrs by wound healing assay (reference value: 18.1 %); type: functional; set-up: scale not given: the % may be the effect or the level left
[10] = Toxicity in C57 mouse xenografted with mouse B16-F10 cells assessed as eosinophil level at 3.5 mg/kg, ip qd for 12 days in presence of NP-19 by biochemical analysis (reference value: 0.700 to 1.000 %); type: organism-based; conditions: in vivo, 288 h, time 12 day
B16-F10 [11] = assay: Induction of apoptosis in mouse B16-F10 cells assessed as viable cells at 2 nM incubated for 12 hrs by Annexin V-FITC/PI staining based flow cytometry (reference value: 93.6 %); type: functional; conditions: read-out: Activity
[12] = Toxicity in C57 mouse xenografted with mouse B16-F10 cells assessed as morphological abnormality in heart at 7 mg/kg, ip qd for 12 days by H and E staining based analysis; type: organism-based; conditions: in vivo, 288 h, time 12 day
B16-F10 [13] = assay: Induction of apoptosis in mouse B16-F10 cells assessed as necrotic cells at 1 nM incubated for 12 hrs by Annexin V-FITC/PI staining based flow cytometry (reference value: 0.25 %); type: functional
[14] = Toxicity in C57 mouse xenografted with mouse B16-F10 cells assessed as body weight change at 3.5 mg/kg, ip qd for 12 days in presence of NP-19; type: organism-based; conditions: in vivo, 288 h, time 12 day
B16-F10 [15] = assay: Inhibition of cell migration in mouse B16-F10 cells assessed as reduction in wound closure incubated for 24 hrs by wound healing assay; type: functional, cell-based
B16-F10 [16] = assay: Induction of cell cycle arrest in mouse B16-F10 cells assessed as accumulation of cells at G2 phase at 2 nM incubated for 12 hrs by flow cytometry (reference value: 13.6 %); type: functional
[17] = Toxicity in C57 mouse xenografted with mouse B16-F10 cells assessed as PCT level at 3.5 mg/kg, ip qd for 12 days in presence of NP-19 by biochemical analysis (reference value: 0.425 to 5.300); type: organism-based; conditions: in vivo, 288 h, time 12 day
[18] = Toxicity in C57 mouse xenografted with mouse B16-F10 cells assessed as MPV level at 7 mg/kg, ip qd for 12 days by biochemical analysis (reference value: 6.200 to 15.000); type: organism-based; conditions: in vivo, 288 h, time 12 day
B16-F10 [19] = assay: Induction of apoptosis in mouse B16-F10 cells assessed as late apoptotic cells at 1 nM incubated for 12 hrs by Annexin V-FITC/PI staining based flow cytometry (reference value: 2.39 %); type: functional
[20] = Toxicity in C57 mouse xenografted with mouse B16-F10 cells assessed as morphological abnormality in kidney at 3.5 mg/kg, ip qd for 12 days in presence of NP-19 by H and E staining based analysis; type: organism-based; conditions: in vivo, 288 h, time 12 day
[21] = Toxicity in C57 mouse xenografted with mouse B16-F10 cells assessed as MPV level at 3.5 mg/kg, ip qd for 12 days in presence of NP-19 by biochemical analysis (reference value: 6.200 to 15.000); type: organism-based; conditions: in vivo, 288 h, time 12 day
B16-F10 [22] = assay: Induction of apoptosis in mouse B16-F10 cells assessed as decrease in Bcl-2 level upto 30 nM incubated for 24 hrs by Western blot analysis; type: functional, cell-based
MCF7 [23] = assay: Induction of apoptosis in human MCF7 cells assessed as decrease in Bcl-2 level upto 30 nM incubated for 24 hrs by Western blot analysis; type: functional, cell-based
[24] = Toxicity in C57 mouse xenografted with mouse B16-F10 cells assessed as monocytes count at 7 mg/kg, ip qd for 12 days by biochemical analysis (reference value: 0.080 to 0.610 10^9/L); type: organism-based; conditions: in vivo, 288 h, time 12 day
B16-F10 [25] = assay: Induction of apoptosis in mouse B16-F10 cells assessed as viable cells at 1 nM incubated for 12 hrs by Annexin V-FITC/PI staining based flow cytometry (reference value: 93.6 %); type: functional; conditions: read-out: Activity
B16-F10 [26] = assay: Antitumor activity against mouse B16-F10 cells xenografted in C57 mouse at 7 mg/kg, ip qd for 12 days relative to control; type: functional; conditions: B16-F10, 288 h, time 12 day, read-out: TGI
B16-F10 [27] = assay: Induction of cell cycle arrest in mouse B16-F10 cells assessed as accumulation of cells at G1 phase at 0.5 nM incubated for 12 hrs by flow cytometry (reference value: 52.0 %); type: functional
B16-F10 [28] = assay: Inhibition of cell migration in mouse B16-F10 cells assessed as migration rate at 2 nM incubated for 24 hrs by wound healing assay (reference value: 61.1 %); type: functional; set-up: scale not given: the % may be the effect or the level left
B16-F10 [29] = assay: Antiproliferative activity against mouse B16-F10 cells incubated for 48 hrs by MTT assay; type: functional, cell-based; conditions: B16-F10, 48 h
[30] = Toxicity in C57 mouse xenografted with mouse B16-F10 cells assessed as MCHC level at 7 mg/kg, ip qd for 12 days by biochemical analysis (reference value: 324.000 to 683.000 g/L); type: organism-based; conditions: in vivo, 288 h, time 12 day
MCF7 [31] = assay: Antiproliferative activity against human MCF7 cells incubated for 48 hrs by MTT assay; type: functional, cell-based; conditions: MCF7, 48 h
[32] = Toxicity in C57 mouse xenografted with mouse B16-F10 cells assessed as morphological abnormality in liver at 7 mg/kg, ip qd for 12 days by H and E staining based analysis; type: organism-based; conditions: in vivo, 288 h, time 12 day
B16-F10 [33] = assay: Induction of cell cycle arrest in mouse B16-F10 cells assessed as accumulation of cells at G1 phase at 1 nM incubated for 12 hrs by flow cytometry (reference value: 52.0 %); type: functional

Cc1nc(N(C)c2ccc3c(ccn3C)c2)c2sccc2n1
Activity [1]: 1.38 10^9/L | viability at 0.0005 µM (B16-F10 [2]): 80.1% | IC50 (NCI-H23): 8.94 nM | Activity (MCF7 [3]): 8.84% | Activity [4]: 0.3% | Activity (B16-F10 [5]): 15.9% | Activity [6]: Non-Toxic | Activity (B16-F10 [7]): 19.3% | Activity (MCF7 [8]): 15.7% | Activity (MCF7 [9]): 3.23% | Activity [10]: 0.3% | viability at 0.002 µM (B16-F10 [11]): 75% | Activity [12]: Non-Toxic | Activity (B16-F10 [13]): 4.4% | Activity [14]: Non-Toxic | inhibition (B16-F10 [15]): Dose-Dependent Effect | Activity (B16-F10 [16]): 72.8% | Activity [17]: 0.179 | Activity [18]: 6 | Activity (B16-F10 [19]): 7.92% | Activity [20]: Non-Toxic | Activity [21]: 6 | Activity (B16-F10 [22]): Active | Activity (MCF7 [23]): Active | Activity [24]: 0.01 10^9/L | viability at 0.001 µM (B16-F10 [25]): 77.1% | inhibition in vivo at 7 mg/kg (B16-F10 [26]): 63.3% | Activity (B16-F10 [27]): 21.3% | Activity (B16-F10 [28]): 34.6% | IC50 (B16-F10 [29]): 11.7 nM | Activity [30]: 322 g/L | IC50 (MCF7 [31]): 9.53 nM | Activity [32]: Non-Toxic | Activity (B16-F10 [33]): 13.8%
